Positions of bridges follow the written chain, without caps; N, C: chain ends. Non-standard residues stand in square brackets, D forms with d. Residues, ends and D or L forms follow the SMILES beside them. Lys(Me2) = CN(C)CCCC[C@H](N)C(=O)O; R8 = C=CCCCCCC[C@@](C)(N)C(=O)O; Cba = N[C@@H](CC1CCC1)C(=O)O; S5 = C=CCCC[C@](C)(N)C(=O)O; Ahx = NCCCCCC(=O)O Bounds are passed on as bounds.

This test deals with T1, Mdm2 (1-125) (Homo sapiens, UniProt Q00987).
T1 construct: Purified MDM2 (1-125) protein was titrated against 50 nM carboxyfluorescein (FAM)-labeled; GST (N, cleaved yes); made in house; host or cells: E. coli BL21 DE3 (pGEX-6P-1)
Briefly: Mdm2 competitive fluorescence anisotropy assay (FAM-labeled 12/1 peptide displacement). Further: 250 nM MDM2. It is filed as binding. The following applies: read-out: Kd (apparent dissociation constant, competitive fluorescence anisotropy). As to the method:
analyzed with SDS page gel and concentrated using a Centricon (3.5 kDa MWCO) concentrator, Millipore. Mdm2 protein samples were then dialyzed into a buffer solution containing 20mM Bis-Tris, pH 6.5, 0.05M NaCl with 1mM DTT and loaded onto a monoS column pre-equilibrated in buffer A (20mM Bis-Tris, pH 6.5, 1mM DTT). The column was then washed in 6 column volumes of buffer A and bound protein was eluted with a linear gradient of 1M NaCL over 25 column volumes. Protein fractions were analyzed with SDS page gel and concentrated using a Centricon (3.5 kDa MWCO) concentrator, Millipore.
Protein concentration was determined using A280 using an extinction coefficients […]
Mdm2 Competitive Fluorescence Anisotropy Assay and Kd Determination […]
Dissociation constants for titration of MDM2 against […]
equation shown below:25,26
[P] is the protein concentration (MDM2), [L] is the labeled peptide concentration, r is the anisotropy measured, r0 is the anisotropy of the free peptide, rb is the anisotropy of the MDM2– FAM-labeled peptide complex, Kd is the dissociation constant, [L]t is the total FAM labeled
(1 picture or pasted object on this page, not shown here) […]
peptide concentration, and [P]t is the total MDM2 concentration. […]
respective competing ligands in subsequent competition assays.
Apparent Kd values were determined for a variety of molecules via competitive fluorescence anisotropy experiments. Titrations were carried out with the concentration of MDM2 held constant […]
The competing molecules were then titrated against the complex of the FAM-labeled peptide and protein. Apparent Kd values were determined by fitting the experimental data to the equations shown below:26,27 […]
[L]st and [L]t denote labeled ligand and total unlabeled ligand input concentrations, respectively.
Kd2 is the dissociation constant of the interaction between the unlabeled ligand and the protein. In […]
all competitive types of experiments, it is assumed that [P]t > [L]st, otherwise considerable amounts of free labeled ligand would always be present and would interfere with measurements. Kd1 is the […]
experimentally determined as described in the previous paragraph. The FAM-labeled peptide was dissolved in dimethyl sulfoxide (DMSO) at 1 mM and diluted into experimental buffer. Readings were carried out with an Envision Multilabel Reader (PerkinElmer). Experiments were carried out […]
Tween 20 buffer. All titrations were carried out in triplicate. Curve-fitting was carried out using […]
Negative control titrations of the ligands under investigation were also carried out with the fluorescently labeled peptide (in the absence of MDM2) to ensure no interactions were occurring between the ligands and FAM-labeled peptide. […]
which would otherwise indicate an unintended interaction between the ligand and the FAM-labeled peptide to be displaced from the MDM2 binding site. […]
A general note: In fluorescence polarisation assays a small probe gives low polarisation when free and higher when bound to something large.

T1 sequence (Q00987 1-125): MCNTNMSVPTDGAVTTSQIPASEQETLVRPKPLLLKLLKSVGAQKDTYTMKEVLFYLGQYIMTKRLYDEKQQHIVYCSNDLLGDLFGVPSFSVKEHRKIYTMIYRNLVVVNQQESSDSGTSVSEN

For `CC(C)C[C@@H]1NC(=O)[C@H](C)NC(=O)[C@H](Cc2c[nH]c3ccccc23)NC(=O)[C@H](Cc2ccc(O)cc2)NC(=O)[C@H](CCC(=O)O)NC(=O)[C@](C)(NC(=O)[C@H](Cc2ccccc2)NC(=O)[C@H](CO)NC(=O)[C@@H](NC(=O)CCCCCNC(=O)CCCC[C@@H]2SC[C@@H]3NC(=O)N[C@@H]32)[C@@H](C)O)CCCCCCC=CCCC[C@@](C)(C(=O)N[C@@H](CCC(=O)O)C(=O)N[C@@H](CC(N)=O)C(=O)N[C@@H](Cc2ccc(O)cc2)C(N)=O)NC(=O)[C@H](CC(C)C)NC1=O` [VIP-87], the Kd was found to be 46.2 ± 3.3 nM.

As for `CC(=O)N[C@@H](CCCCN)C(=O)N[C@@H](CCCCN)C(=O)N[C@@H](CCCCN)C(=O)NCCCCCC(=O)N[C@H](C(=O)N[C@@H](CO)C(=O)N[C@@H](Cc1ccccc1)C(=O)N[C@]1(C)CCCCCCC=CCCC[C@@](C)(C(=O)N[C@@H](CCC(=O)O)C(=O)N[C@@H](CC(N)=O)C(=O)N[C@@H](Cc2ccccc2)C(N)=O)NC(=O)[C@H](CC(C)C)NC(=O)[C@H](CC(C)C)NC(=O)[C@H](C)NC(=O)[C@H](Cc2c[nH]c3ccccc23)NC(=O)[C@H](Cc2ccc(O)cc2)NC(=O)[C@H](CCC(=O)O)NC1=O)[C@@H](C)O` [VIP-115] (Ac-KKK[Ahx]TSF[R8]EYWALL[S5]ENF-NH2; staple 8-15), the Kd is 11.6 ± 1.2 nM.

As for `CC(=O)N[C@@H](CCCCN)C(=O)NCCCCCC(=O)N[C@H](C(=O)N[C@@H](CO)C(=O)N[C@@H](Cc1ccccc1)C(=O)N[C@]1(C)CCCCCCC=CCCC[C@@](C)(C(=O)N[C@@H](CCC(=O)O)C(=O)N[C@@H](CC(N)=O)C(=O)N[C@@H](Cc2ccccc2)C(N)=O)NC(=O)[C@H](CC(C)C)NC(=O)[C@H](CC(C)C)NC(=O)[C@H](C)NC(=O)[C@H](Cc2c[nH]c3ccccc23)NC(=O)[C@H](Cc2ccc(O)cc2)NC(=O)[C@H](CCC(=O)O)NC1=O)[C@@H](C)O` [VIP-116], the Kd is 15.1 ± 1.7 nM.

For the compound `CC(=O)N[C@@H](CCCNC(=N)N)C(=O)N[C@@H](CCCNC(=N)N)C(=O)NCCCCCC(=O)N[C@H](C(=O)N[C@@H](CO)C(=O)N[C@@H](Cc1ccccc1)C(=O)N[C@]1(C)CCCCCCC=CCCC[C@@](C)(C(=O)N[C@@H](CCC(=O)O)C(=O)N[C@@H](CC(N)=O)C(=O)N[C@@H](Cc2ccccc2)C(N)=O)NC(=O)[C@H](CC(C)C)NC(=O)[C@H](CC(C)C)NC(=O)[C@H](C)NC(=O)[C@H](Cc2c[nH]c3ccccc23)NC(=O)[C@H](Cc2ccc(O)cc2)NC(=O)[C@H](CCC(=O)O)NC1=O)[C@@H](C)O` [VIP-117] (Ac-RR[Ahx]TSF[R8]EYWALL[S5]ENF-NH2; staple 7-14), the Kd was 160 ± 14.6 nM.

As to `CC(=O)N[C@@H](CCCNC(=N)N)C(=O)NCCCCCC(=O)N[C@H](C(=O)N[C@@H](CO)C(=O)N[C@@H](Cc1ccccc1)C(=O)N[C@]1(C)CCCCCCC=CCCC[C@@](C)(C(=O)N[C@@H](CCC(=O)O)C(=O)N[C@@H](CC(N)=O)C(=O)N[C@@H](Cc2ccccc2)C(N)=O)NC(=O)[C@H](CC(C)C)NC(=O)[C@H](CC(C)C)NC(=O)[C@H](C)NC(=O)[C@H](Cc2c[nH]c3ccccc23)NC(=O)[C@H](Cc2ccc(O)cc2)NC(=O)[C@H](CCC(=O)O)NC1=O)[C@@H](C)O` [VIP-118], the Kd is 39.5 ± 3.9 nM.

For `CC(=O)N[C@@H](CCCCN)C(=O)N[C@@H](CCCCN)C(=O)NCCCCCC(=O)N[C@@H](CC(C)C)C(=O)N[C@H](C(=O)N[C@@H](Cc1ccccc1)C(=O)N[C@]1(C)CCCCCCC=CCCC[C@@](C)(C(=O)N[C@@H](CCC(=O)O)C(=O)N[C@@H](CC(N)=O)C(=O)N[C@@H](Cc2ccccc2)C(N)=O)NC(=O)[C@H](CC(C)C)NC(=O)[C@H](CC(C)C)NC(=O)[C@H](C)NC(=O)[C@H](Cc2c[nH]c3ccccc23)NC(=O)[C@H](Cc2ccc(O)cc2)NC(=O)[C@H](CCC(=O)O)NC1=O)[C@@H](C)O` [VIP-119] (Ac-KK[Ahx]LTF[R8]EYWALL[S5]ENF-NH2; staple 7-14), the Kd is 2.7 ± 0.9 nM.

In the case of `CC(=O)N[C@@H](CC(C)C)C(=O)N[C@H](C(=O)N[C@@H](Cc1ccccc1)C(=O)N[C@]1(C)CCCCCCC=CCCC[C@@](C)(C(=O)N[C@@H](CCC(=O)O)C(=O)N[C@@H](CC(N)=O)C(=O)N[C@@H](Cc2ccccc2)C(N)=O)NC(=O)[C@H](CC(C)C)NC(=O)[C@H](CC(C)C)NC(=O)[C@H](C)NC(=O)[C@H](Cc2c[nH]c3ccccc23)NC(=O)[C@H](Cc2ccc(O)cc2)NC(=O)[C@H](CCC(=O)O)NC1=O)[C@@H](C)O` [VIP-120] (Ac-LTF[R8]EYWALL[S5]ENF-NH2; staple 4-11), the Kd worked out at 1.8 ± 0.7 nM.

`CC(=O)N[C@@H](CCCCN)C(=O)N[C@@H](CC(C)C)C(=O)N[C@@H](C)C(=O)N[C@@H](CCCCN)C(=O)NCCCCCC(=O)N[C@H](C(=O)N[C@@H](CO)C(=O)N[C@@H](Cc1ccccc1)C(=O)N[C@]1(C)CCCCCCC=CCCC[C@@](C)(C(N)=O)NC(=O)[C@H](CC(C)C)NC(=O)[C@H](CC(C)C)NC(=O)[C@H](C)NC(=O)[C@H](Cc2c[nH]c3ccccc23)NC(=O)[C@H](Cc2ccc(O)cc2)NC(=O)[C@H](CCC(=O)O)NC1=O)[C@@H](C)O` [VIP-122]: the Kd worked out at 3.7 ± 0.9 nM.

For the compound `CC(=O)N[C@@H](CCCCN)C(=O)N[C@@H](CCCCN)C(=O)NCCCCCC(=O)N[C@H](C(=O)N[C@@H](CO)C(=O)N[C@@H](Cc1ccccc1)C(=O)N[C@]1(C)CCCCCCC=CCCC[C@@](C)(C(=O)N[C@@H](CCC(=O)O)C(=O)N[C@@H](CC(N)=O)C(=O)N[C@@H](Cc2ccccc2)C(N)=O)NC(=O)[C@H](CC2CCC2)NC(=O)[C@H](CC(C)C)NC(=O)[C@H](C)NC(=O)[C@H](Cc2c[nH]c3ccccc23)NC(=O)[C@H](Cc2ccc(O)cc2)NC(=O)[C@H](CCC(=O)O)NC1=O)[C@@H](C)O` [VIP-124] (Ac-KK[Ahx]TSF[R8]EYWAL[Cba][S5]ENF-NH2; staple 7-14), the Kd amounted to 2.7 ± 0.4 nM.

On to `CC(=O)N[C@@H](CCCCN)C(=O)N[C@@H](CCCCN)C(=O)N[C@@H](CCCCN)C(=O)NCCCCCC(=O)N[C@H](C(=O)N[C@@H](CO)C(=O)N[C@@H](CC(C)C)C(=O)N[C@]1(C)CCCCCCC=CCCC[C@@](C)(C(=O)N[C@@H](CCC(=O)O)C(=O)N[C@@H](CC(N)=O)C(=O)N[C@@H](Cc2ccccc2)C(N)=O)NC(=O)[C@H](Cc2c[nH]c3ccccc23)NC(=O)[C@H](CC(C)C)NC(=O)[C@H](C)NC(=O)[C@H](Cc2ccccc2)NC(=O)[C@H](Cc2ccc(O)cc2)NC(=O)[C@H](CCC(=O)O)NC1=O)[C@@H](C)O` [VIP-127 SCRAM] (Ac-KKK[Ahx]TSL[R8]EYFALW[S5]ENF-NH2; staple 8-15), for which the Kd is > 10000 nM.

For the compound `CC(=O)N[C@@H](CCCNC(=N)N)C(=O)N[C@@H](CCCNC(=N)N)C(=O)N[C@@H](CCCNC(=N)N)C(=O)NCCCCCC(=O)N[C@H](C(=O)N[C@@H](CO)C(=O)N[C@@H](CC(C)C)C(=O)N[C@]1(C)CCCCCCC=CCCC[C@@](C)(C(=O)N[C@@H](CCC(=O)O)C(=O)N[C@@H](CC(N)=O)C(=O)N[C@@H](Cc2ccccc2)C(N)=O)NC(=O)[C@H](Cc2c[nH]c3ccccc23)NC(=O)[C@H](CC(C)C)NC(=O)[C@H](C)NC(=O)[C@H](Cc2ccccc2)NC(=O)[C@H](Cc2ccc(O)cc2)NC(=O)[C@H](CCC(=O)O)NC1=O)[C@@H](C)O` [VIP-128 SCRAM] (Ac-RRR[Ahx]TSL[R8]EYFALW[S5]ENF-NH2; staple 8-15), the Kd was > 10000 nM.

`CC(=O)N[C@@H](CCCCN)C(=O)N[C@@H](CC(C)C)C(=O)N[C@@H](C)C(=O)N[C@@H](CCCCN)C(=O)NCCCCCC(=O)N[C@H](C(=O)N[C@@H](CO)C(=O)N[C@@H](Cc1ccccc1)C(=O)N[C@]1(C)CCCCCCC=CCCC[C@@](C)(C(=O)N[C@@H](CCC(=O)O)C(=O)N[C@@H](CC(N)=O)C(=O)N[C@@H](Cc2ccccc2)C(N)=O)NC(=O)[C@H](CC(C)C)NC(=O)[C@H](CC(C)C)NC(=O)[C@H](C)NC(=O)[C@H](Cc2c[nH]c3ccccc23)NC(=O)[C@H](Cc2ccc(O)cc2)NC(=O)[C@H](CCC(=O)O)NC1=O)[C@@H](C)O` [VIP-129] (Ac-KLAK[Ahx]TSF[R8]EYWALL[S5]ENF-NH2; staple 9-16): the Kd came out at 9.1 ± 1 nM.

On to `CC(=O)N[C@@H](CCCCN(C)C)C(=O)N[C@@H](CCCCN(C)C)C(=O)NCCCCCC(=O)N[C@H](C(=O)N[C@@H](CO)C(=O)N[C@@H](Cc1ccccc1)C(=O)N[C@]1(C)CCCCCCC=CCCC[C@@](C)(C(=O)N[C@@H](CCC(=O)O)C(=O)N[C@@H](CC(N)=O)C(=O)N[C@@H](Cc2ccccc2)C(N)=O)NC(=O)[C@H](CC(C)C)NC(=O)[C@H](CC(C)C)NC(=O)[C@H](C)NC(=O)[C@H](Cc2c[nH]c3ccccc23)NC(=O)[C@H](Cc2ccc(O)cc2)NC(=O)[C@H](CCC(=O)O)NC1=O)[C@@H](C)O` [VIP-131] (Ac-[Lys(Me2)][Lys(Me2)][Ahx]TSF[R8]EYWALL[S5]ENF-NH2; staple 7-14), for which the Kd amounted to 25.6 ± 2.6 nM.

The record behind these values is article PMC5431883, “Enhancing Specific Disruption of Intracellular Protein Complexes by Hydrocarbon Stapled Peptides Using Lipid Based Delivery” (Scientific Reports, 2017).
